Patent US20240279635A1, “BIOFILM ACTIVITY ADJUSTING METHOD” (NATIONAL INSTITUTE FOR MATERIALS SCIENCE, priority 2021, published 2024)

Tested on: Klebsiella pneumoniae
Experiment: Electric current generation by Klebsiella pneumoniae with electron mediators in a three-electrode electrochemical cell (time-current curve, FIG. 4)
Type: cell-based
Conditions: 100 μM electron mediator, 10 mM glucose, working electrode +0.2 V (vs. Ag/AgCl), 37° C., anaerobic condition, 15 hours, carbon electrodes
Procedure: The experiment was performed using a three-electrode electrochemical cell having carbon electrodes as the working electrode and counter electrode, and a silver/silver chloride electrode as the reference electrode.
First, as an electron source, a liquid culture medium (defined medium) containing 10 mM of glucose and 100 μM of electron mediator (see below) was added to the cell described above, to which Klebsiella pneumoniae (optical density (OD): 0.1) was inoculated, then an electric potential of the working electrode was set to +0.2 V (vs. Ag/AgCl) at 37° C., and the culture medium was incubated under anaerobic condition for 15 hours.
• HNQ: 2-hydroxy-1,4-naphthoquinone • 1-Phenazine: 1-hydroxyphenazine • AQDS: anthraquinone-1,5-disulfonate • AQS: anthraquinone-1-sulfonate • FMN: flavin mono nucleotide • RF: ribobflavin • W/O mediator: no electron mediator
FIG. 4 is a time-current curve.

Compound: O=C1C=C(O)C(=O)c2ccccc21 [HNQ, 2-hydroxy-1,4-naphthoquinone]
- generated electric current (time-current curve): a large electric current could be generated
